Experimental data published in US20250042914A1, “PIKFYVE KINASE INHIBITOR” (HANMI PHARM. CO., LTD., priority 2021, published 2025).
Where a name gives a salt, the structure may show the parent alone.

Biological target: human-derived PIKfyve kinase (Homo sapiens (Human), UniProt Q9Y2I7)
Assay: PIKfyve enzyme inhibition assay (ADP-Glo)
Format: biochemical
Settings: PIKfyve enzyme inhibitory assay; PI(3)P 10 μm, ATP 2 μm, 60 minutes
Experimental: For each of the compounds prepared in Examples 1 to 33, the PIKfyve enzyme inhibitory activity was measured by using a QS S Assis PIKFYVE (PIP5K3)_ADP-Glo™ Kit (Cat. #11-118) made by Carna Bioscience. 5 μL of each of human-derived PIKfyve kinase, PI(3)P, and ATP solution was added to a 384-well plate (such that final concentrations of each solution are 375 ng/ml, 10 μm, and 2 μm, respectively). The compound to be evaluated underwent serial dilution according to the set concentrations, and 5 μL of the diluted solution was added to each well and caused a reaction for 60 minutes. MgCl2 was mixed in ADP-Glo™ solution (Promega, Cat. #V9102) to a final concentration of 100 mM, and 20 μL of the mixed solution was added to each well and caused a reaction at room temperature for 40 minutes. 40 μL of kinase detection solution was added to each well and caused a reaction at room temperature for 40 minutes. Then, the luminescence signals were detected by using a Synergy™ NEO microplate analyzer. Well to which no enzyme was added were used as a negative control, whereas wells to which no drug was added were used as a positive control, so as to calculate the enzyme inhibitory ability (%) of drugs. The 50% inhibitor concentration (IC50) values were calculated by using a GraphPad Prism software.
In Table 1, when the case where the IC50 value was 50 nM or less was indicated as A, the case where the IC50 value was greater than 50 nM but equal to or less than 100 nM was indicated as B, and the case where the IC50 value was greater than 100 nM was indicated as C.

Chain of human-derived PIKfyve kinase (Q9Y2I7 whole entry): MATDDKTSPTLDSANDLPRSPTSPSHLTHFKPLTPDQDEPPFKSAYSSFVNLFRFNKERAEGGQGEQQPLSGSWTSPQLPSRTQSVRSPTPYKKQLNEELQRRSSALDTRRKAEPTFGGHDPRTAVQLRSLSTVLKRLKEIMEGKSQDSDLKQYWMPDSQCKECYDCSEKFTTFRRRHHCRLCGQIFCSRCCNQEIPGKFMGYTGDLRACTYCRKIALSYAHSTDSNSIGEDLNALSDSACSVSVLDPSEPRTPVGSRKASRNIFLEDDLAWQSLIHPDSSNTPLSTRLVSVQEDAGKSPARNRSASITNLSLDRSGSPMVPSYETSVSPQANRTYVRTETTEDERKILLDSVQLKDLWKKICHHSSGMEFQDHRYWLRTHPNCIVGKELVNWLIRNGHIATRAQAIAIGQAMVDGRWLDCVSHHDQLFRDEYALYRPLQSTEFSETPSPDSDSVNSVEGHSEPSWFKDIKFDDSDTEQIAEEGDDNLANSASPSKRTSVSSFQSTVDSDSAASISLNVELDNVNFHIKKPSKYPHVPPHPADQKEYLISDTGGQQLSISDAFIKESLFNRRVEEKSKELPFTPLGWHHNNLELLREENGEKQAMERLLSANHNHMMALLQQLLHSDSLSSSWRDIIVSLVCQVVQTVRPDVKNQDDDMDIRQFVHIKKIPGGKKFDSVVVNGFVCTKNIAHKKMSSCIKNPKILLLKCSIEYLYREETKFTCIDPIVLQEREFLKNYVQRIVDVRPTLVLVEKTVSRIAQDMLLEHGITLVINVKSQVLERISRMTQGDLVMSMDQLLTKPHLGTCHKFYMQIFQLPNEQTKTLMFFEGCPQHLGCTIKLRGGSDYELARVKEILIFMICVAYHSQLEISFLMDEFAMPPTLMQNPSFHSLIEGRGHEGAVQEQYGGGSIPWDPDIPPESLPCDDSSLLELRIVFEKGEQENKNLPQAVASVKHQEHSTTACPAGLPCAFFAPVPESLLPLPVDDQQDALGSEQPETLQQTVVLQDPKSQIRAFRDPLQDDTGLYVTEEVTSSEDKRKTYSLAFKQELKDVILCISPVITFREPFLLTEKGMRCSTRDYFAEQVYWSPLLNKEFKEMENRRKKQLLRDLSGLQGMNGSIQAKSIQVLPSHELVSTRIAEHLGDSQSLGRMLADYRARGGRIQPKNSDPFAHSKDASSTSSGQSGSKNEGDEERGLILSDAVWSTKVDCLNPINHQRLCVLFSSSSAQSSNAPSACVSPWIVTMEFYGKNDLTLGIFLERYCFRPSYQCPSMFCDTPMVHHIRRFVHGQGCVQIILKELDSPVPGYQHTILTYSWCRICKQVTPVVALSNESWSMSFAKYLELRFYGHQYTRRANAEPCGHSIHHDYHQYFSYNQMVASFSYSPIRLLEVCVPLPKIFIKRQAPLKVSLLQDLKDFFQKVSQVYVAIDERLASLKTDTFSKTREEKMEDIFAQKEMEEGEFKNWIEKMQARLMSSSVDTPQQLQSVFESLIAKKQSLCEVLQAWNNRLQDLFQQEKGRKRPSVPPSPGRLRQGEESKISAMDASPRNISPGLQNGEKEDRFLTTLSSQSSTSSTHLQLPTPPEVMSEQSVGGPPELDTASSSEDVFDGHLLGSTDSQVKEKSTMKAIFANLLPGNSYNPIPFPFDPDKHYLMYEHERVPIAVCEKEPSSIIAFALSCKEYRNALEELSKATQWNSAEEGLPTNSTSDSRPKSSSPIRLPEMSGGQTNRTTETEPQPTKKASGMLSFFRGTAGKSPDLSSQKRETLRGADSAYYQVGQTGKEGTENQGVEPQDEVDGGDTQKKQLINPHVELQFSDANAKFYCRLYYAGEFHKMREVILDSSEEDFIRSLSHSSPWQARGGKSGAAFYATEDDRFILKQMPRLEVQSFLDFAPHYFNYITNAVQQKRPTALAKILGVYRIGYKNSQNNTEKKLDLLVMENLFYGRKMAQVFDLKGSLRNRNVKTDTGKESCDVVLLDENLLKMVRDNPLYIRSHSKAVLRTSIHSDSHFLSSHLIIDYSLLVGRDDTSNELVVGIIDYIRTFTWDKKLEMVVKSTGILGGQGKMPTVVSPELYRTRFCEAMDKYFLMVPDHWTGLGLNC

Structure (SMILES)	IC50 [nM]
O=C(Nc1cccc(-c2nc(N3CCOCC3)c3sc(-c4ccncc4)cc3n2)c1)c1ccncc1 [Example 1, N-(3-(4-morpholino-6-(pyridin-4-yl)thieno[3,2-d]pyrimidin-2-yl)phenyl)isonicotinamide]	≤ 50
O=C(Nc1cccc(-c2nc(N3CCOCC3)c3sc(-c4cccnc4)cc3n2)c1)c1ccncc1 [Example 2, N-(3-(4-morpholino-6-(pyridin-3-yl)thieno[3,2-d]pyrimidin-2-yl)phenyl)isonicotinamide]	≤ 50
O=C(Nc1cccc(-c2nc(N3CCOCC3)c3sc(-c4cnco4)cc3n2)c1)c1ccncc1 [Example 3, N-(3-(4-morpholino-6-(oxazol-5-yl)thieno[3,2-d]pyrimidin-2-yl)phenyl)isonicotinamide]	≤ 50
O=C(Nc1cccc(-c2nc(N3CCOCC3)c3sc(-c4ccncc4)cc3n2)c1)c1cccnc1 [Example 4, N-(3-(4-morpholino-6-(pyridin-4-yl)thieno[3,2-d]pyrimidin-2-yl)phenyl)nicotinamide]	≤ 50
O=C(Nc1cccc(-c2nc(N3CCOCC3)c3sc(-c4cccnc4)cc3n2)c1)c1cccnc1 [Example 5, N-(3-(4-morpholino-6-(pyridin-3-yl)thieno[3,2-d]pyrimidin-2-yl)phenyl)nicotinamide]	≤ 50
Nc1ccc(-c2cc3nc(-c4cccc(NC(=O)c5cccnc5)c4)nc(N4CCOCC4)c3s2)cc1 [Example 6, N-(3-(6-(4-aminophenyl)-4-morpholinothieno[3,2-d]pyrimidin-2-yl)phenyl)nicotinamide hydrochloride]	≤ 50
O=C(Nc1cccc(-c2nc(N3CCOCC3)c3sc(-c4cnco4)cc3n2)c1)c1cccnc1 [Example 7, N-(3-(4-morpholino-6-(oxazol-5-yl)thieno[3,2-d]pyrimidin-2-yl)phenyl)nicotinamide]	≤ 50
O=C(Nc1cccc(-c2nc(N3CCOCC3)c3sc(-c4ccnc5[nH]ccc45)cc3n2)c1)c1cccnc1 [Example 9, N-(3-(4-morpholino-6-(1H-pyrrolo[2,3-b]pyridin-4-yl)thieno[3,2-d]pyrimidin-2-yl)phenyl)nicotinamide]	≤ 50
O=C(Nc1cccc(-c2nc(N3CCOCC3)c3sc(-c4ccnc5[nH]ncc45)cc3n2)c1)c1cccnc1 [Example 10, N-(3-(4-morpholino-6-(1H-pyrazolo[3,4-b]pyridin-4-yl)thieno[3,2-d]pyrimidin-2-yl)phenyl)nicotinamide]	50 to 100
O=C(Nc1cccc(-c2nc(N3CCOCC3)c3sc(-c4cncc5[nH]ccc45)cc3n2)c1)c1cccnc1 [Example 11, N-(3-(4-morpholino-6-(1H-pyrrolo[2,3-c]pyridin-4-yl)thieno[3,2-d]pyrimidin-2-yl)phenyl)nicotinamide]	> 100
O=C(Nc1cccc(-c2nc(N3CCOCC3)c3sc(-c4cccnc4)cc3n2)c1)c1cnco1 [Example 13, N-(3-(4-morpholino-6-(pyridin-3-yl)thieno[3,2-d]pyrimidin-2-yl)phenyl) oxazole-5-carboxamide]	≤ 50
O=C(Nc1cccc(-c2nc(N3CCOCC3)c3sc(-c4cccnc4)cc3n2)c1)c1ncco1 [Example 14, N-(3-(4-morpholino-6-(pyridin-3-yl)thieno[3,2-d]pyrimidin-2-yl)phenyl) oxazole-2-carboxamide]	≤ 50
Cc1nc(C)c(C(=O)Nc2cccc(-c3nc(N4CCOCC4)c4sc(-c5cccnc5)cc4n3)c2)s1 [Example 23, 2,4-dimethyl-N-(3-(4-morpholino-6-(pyridin-3-yl)thieno[3,2-d]pyrimidin-2-yl)phenyl) thiazole-5-carboxamide]	50 to 100
O=C(Nc1cccc(-c2nc(N3CCOCC3)c3sc(-c4cnco4)cc3n2)c1)c1cocn1 [Example 33, N-(3-(4-morpholino-6-(oxazol-5-yl)thieno[3,2-d]pyrimidin-2-yl)phenyl)oxazole-4-carboxamide]	≤ 50

Now from value to compound:

IC50 [nM]	Structure (SMILES)
≤ 50	O=C(Nc1cccc(-c2nc(N3CCOCC3)c3sc(-c4cccnc4)cc3n2)c1)c1cocn1 [Example 12, N-(3-(4-morpholino-6-(pyridin-3-yl)thieno[3,2-d]pyrimidin-2-yl)phenyl) oxazole-4-carboxamide]
50 to 100	Cc1ncc(C(=O)Nc2cccc(-c3nc(N4CCOCC4)c4sc(-c5cccnc5)cc4n3)c2)o1 [Example 15, 2-methyl-N-(3-(4-morpholino-6-(pyridin-3-yl)thieno[3,2-d]pyrimidin-2-yl)phenyl) oxazole-5-carboxamide]
≤ 50	Cc1ncoc1C(=O)Nc1cccc(-c2nc(N3CCOCC3)c3sc(-c4cccnc4)cc3n2)c1 [Example 16, 4-methyl-N-(3-(4-morpholino-6-(pyridin-3-yl)thieno[3,2-d]pyrimidin-2-yl)phenyl) oxazole-5-carboxamide]
≤ 50	Cc1nc(C)c(C(=O)Nc2cccc(-c3nc(N4CCOCC4)c4sc(-c5cccnc5)cc4n3)c2)o1 [Example 17, 2,4-dimethyl-N-(3-(4-morpholino-6-(pyridin-3-yl)thieno[3,2-d]pyrimidin-2-yl)phenyl) oxazole-5-carboxamide]
> 100	O=C(Nc1cccc(-c2nc(N3CCOCC3)c3sc(-c4cccnc4)cc3n2)c1)c1cscn1 [Example 18, N-(3-(4-morpholino-6-(pyridin-3-yl)thieno[3,2-d]pyrimidin-2-yl)phenyl) thiazole-4-carboxamide]
≤ 50	O=C(Nc1cccc(-c2nc(N3CCOCC3)c3sc(-c4cccnc4)cc3n2)c1)c1cncs1 [Example 19, N-(3-(4-morpholino-6-(pyridin-3-yl)thieno[3,2-d]pyrimidin-2-yl)phenyl) thiazole-5-carboxamide]
> 100	O=C(Nc1cccc(-c2nc(N3CCOCC3)c3sc(-c4cccnc4)cc3n2)c1)c1nccs1 [Example 20, N-(3-(4-morpholino-6-(pyridin-3-yl)thieno[3,2-d]pyrimidin-2-yl)phenyl) thiazole-2-carboxamide]
≤ 50	Cc1ncc(C(=O)Nc2cccc(-c3nc(N4CCOCC4)c4sc(-c5cccnc5)cc4n3)c2)s1 [Example 21, 2-methyl-N-(3-(4-morpholino-6-(pyridin-3-yl)thieno[3,2-d]pyrimidin-2-yl)phenyl) thiazole-5-carboxamide]
≤ 50	Cc1ncsc1C(=O)Nc1cccc(-c2nc(N3CCOCC3)c3sc(-c4cccnc4)cc3n2)c1 [Example 22, 4-methyl-N-(3-(4-morpholino-6-(pyridin-3-yl)thieno[3,2-d]pyrimidin-2-yl)phenyl) thiazole-5-carboxamide]
≤ 50	O=C(Nc1cccc(-c2nc(N3CCOCC3)c3sc(-c4cccnc4)cc3n2)c1)C1CCCNC1 (centres unmarked) [Example 24, N-(3-(4-morpholino-6-(pyridin-3-yl)thieno[3,2-d]pyrimidin-2-yl)phenyl)piperidine-3-carboxamide]
≤ 50	O=C(Nc1cccc(-c2nc(N3CCOCC3)c3sc(-c4cccnc4)cc3n2)c1)C1CCNCC1 [Example 25, N-(3-(4-morpholino-6-(pyridin-3-yl)thieno[3,2-d]pyrimidin-2-yl)phenyl)piperidine-4-carboxamide]
50 to 100	O=C(Nc1cccc(-c2nc(N3CCOCC3)c3sc(-c4cccnc4)cc3n2)c1)C1CCN(CCO)CC1 [Example 26, 1-(2-hydroxyethyl)-N-(3-(4-morpholino-6-(pyridin-3-yl)thieno[3,2-d]pyrimidin-2-yl)phenyl)piperidine-4-carboxamide]
50 to 100	COCCN1CCC(C(=O)Nc2cccc(-c3nc(N4CCOCC4)c4sc(-c5cccnc5)cc4n3)c2)CC1 [Example 27, 1-(2-methoxyethyl)-N-(3-(4-morpholino-6-(pyridin-3-yl)thieno[3,2-d]pyrimidin-2-yl)phenyl)piperidine-4-carboxamide]
> 100	O=CN1CCC(C(=O)Nc2cccc(-c3nc(N4CCOCC4)c4sc(-c5cccnc5)cc4n3)c2)CC1 [Example 28, 1-formyl-N-(3-(4-morpholino-6-(pyridin-3-yl)thieno[3,2-d]pyrimidin-2-yl)phenyl)piperidine-4-carboxamide]
> 100	CC(=O)N1CCC(C(=O)Nc2cccc(-c3nc(N4CCOCC4)c4sc(-c5cccnc5)cc4n3)c2)CC1 [Example 29, 1-acetyl-N-(3-(4-morpholino-6-(pyridin-3-yl)thieno[3,2-d]pyrimidin-2-yl)phenyl)piperidine-4-carboxamide]
> 100	COC(=O)N1CCC(C(=O)Nc2cccc(-c3nc(N4CCOCC4)c4sc(-c5cccnc5)cc4n3)c2)CC1 [Example 30, methyl 4-((3-(4-morpholino-6-(pyridin-3-yl)thieno[3,2-d]pyrimidin-2-yl)phenyl)carbamoyl)piperidine-1-carboxylate]
≤ 50	CCOC(=O)N1CCC(C(=O)Nc2cccc(-c3nc(N4CCOCC4)c4sc(-c5cccnc5)cc4n3)c2)CC1 [Example 31, ethyl 4-((3-(4-morpholino-6-(pyridin-3-yl)thieno[3,2-d]pyrimidin-2-yl)phenyl)carbamoyl)piperidine-1-carboxylate]
≤ 50	O=C(Nc1cccc(-c2nc(N3CCOCC3)c3sc(-c4cccnc4)cc3n2)c1)[C@H]1CC[C@@H](O)CC1 [Example 32, (1s,4s)-4-hydroxy-N-(3-(4-morpholino-6-(pyridin-3-yl)thieno[3,2-d]pyrimidin-2-yl)phenyl)cyclohexane-1-carboxamide]
